# Laboratory results reported in patent US8338643B2, “Reagent for introduction of protein or gene” (Waseda University, priority 2006, dated 2012).
# Columns and labels:
# COS-1 cells = assay: Gene expression level by luciferase assay, lipid/pDNA complex; type: cell-based; conditions: for Gene expression level: COS-1, DOPE/cationic lipid liposome, 200 ng DNA, 24 hours
# Description: (§1) Use of a cationic lipid as a reagent for gene introduction was studied. Cationic liposomes consisting of a mixed membrane constituted by DOPE as a membrane-fusogenic lipid and a cationic lipid were prepared. 15 mg of the mixed lipid (the introduction amount of cationic lipid membrane in mixed membrane was adjusted to 20, 30, 40 or 50 mol %) was dispersed in 1.5 mL of the HEPES buffer solution (pH 7.4), and a liposome having the particle size of about 100 nm was prepared using a probe-type ultrasonic apparatus. The particle size was measured by the dynamic light scattering method. In the table, A represents a cationic lipid 2 and a cationic lipid 6; B represents a cationic lipid 5; C represents a cationic lipid 7; and D represents a cationic lipid 8.
# In order to evaluate the gene transfer ability of the prepared cationic liposomes, the gene expression level was calculated based on luciferase assay using an luciferase-encoding plasmid vector (phRL-TK) (n=3).
# The experimental protocol was as follows. The amount of transfected DNA was set to 200 ng in all the cases. In 100 μL of medium, COS-1 cells (1×10^4 cells/well) were seeded on a 96-well plate, and cultured in a CO2 incubator for 12 hours. A complex of lipid and plasmid DNA (lipid/pDNA complex) was allowed to stand for minutes, and diluted with the medium to be added to the cells. After that, culture in the CO2 incubator was carried out for 24 hours. The medium was removed, and washing with PBS(−) was carried out twice. Then, a dissolution buffer diluted 5-fold with MilliQ water was added to the medium (25 μl/well), and the cells were solubilized. The obtained solution was mildly stirred and allowed to stand at room temperature for minutes. To 20 μL of the cell solution, 100 μL of the coelenterazine solution was added, and the luminescence intensity was measured using a luminometer.
# [1] = Particle size of liposomes by dynamic light scattering; type: physicochemical; conditions: DOPE mixed membrane, in nm
# Description: (§2) The particle size and the ζ potential of the prepared cationic liposomes were measured. In the measurement of the particle size, the particle size in the case of the lipid concentration of 30 μM was measured by the dynamic light scattering method. In the measurement of the ζ potential, a liposome dispersion was diluted with a HEPES buffer solution (pH 7.4), and the ζ potential in the case of 30 μM was measured.
# as §1
# ζ potential of liposomes = type: physicochemical; conditions: for ζ potential: DOPE mixed membrane, in mV
# Description: As evaluation of physical properties, the quantification of lipid was carried out by means of quantification of choline-type phospholipid, and quantification of encapsulated protein was carried out by means of HPLC (220 nm). In addition, the particle size and ζ potential were measured by the dynamic light scattering method (BECKMAN COULTER, N4 PLUS). […]
# as §2
# Next, the ζ potential of the prepared cationic liposomes was measured. A to D in the table was the same as Table 9.
Particle size ([1]; cationic lipid 20 mol %),Particle size ([1]; cationic lipid 30 mol %),Particle size ([1]; cationic lipid 40 mol %),Particle size ([1]; cationic lipid 50 mol %),ζ potential (ζ potential of liposomes; cationic lipid 20 mol %),ζ potential (ζ potential of liposomes; cationic lipid 30 mol %),ζ potential (ζ potential of liposomes; cationic lipid 40 mol %),ζ potential (ζ potential of liposomes; cationic lipid 50 mol %),"ζ potential, comparison between lipids (ζ potential of liposomes; DOPE mixed membrane liposomes)",Compound,Gene expression level (COS-1 cells),"Gene expression efficiency at best conditions (COS-1 cells; DOPE/lipid 6=6/4 (mol ratio), cationic liposome/plasmid DNA 10/1 (w/w))"
99 ± 45,95 ± 46,91 ± 43,100 ± 47,28 ± 3.4,37 ± 0.2,42 ± 3.0,41 ± 1.3,,"CCCCCCCCCCCCCCCCOC(=O)CCC(NC(=O)CCCCCNC(=O)C(N)CCCCN)C(=O)OCCCCCCCCCCCCCCCC (stereo not drawn) [Compound 5, Lys-(CH2)5-Glu2C16]",the expression level was lower than that of the spacer-contained lipid 6,
88 ± 42,98 ± 37,86 ± 40,100 ± 48,34 ± 42,40 ± 3.3,49 ± 3.3,37 ± 3.1,,Lys-(CH2)7-Glu2C16 [Compound 7],the gene expression level was low,
95 ± 36,113 ± 50,80 ± 39,95 ± 36,30 ± 1.2,37 ± 0.8,37 ± 3.1,44 ± 1.6,slightly lower than that of the lipid 7,Lys-(CH2)11-Glu2C16 [Compound 8],,

# Second part, the compound before the results:
Compound,Particle size ([1]; cationic lipid 20 mol %),Particle size ([1]; cationic lipid 30 mol %),Particle size ([1]; cationic lipid 40 mol %),Particle size ([1]; cationic lipid 50 mol %),ζ potential (ζ potential of liposomes; cationic lipid 20 mol %),ζ potential (ζ potential of liposomes; cationic lipid 30 mol %),ζ potential (ζ potential of liposomes; cationic lipid 40 mol %),ζ potential (ζ potential of liposomes; cationic lipid 50 mol %),"ζ potential, comparison between lipids (ζ potential of liposomes; DOPE mixed membrane liposomes)",Gene expression level (COS-1 cells),"Gene expression efficiency at best conditions (COS-1 cells; DOPE/lipid 6=6/4 (mol ratio), cationic liposome/plasmid DNA 10/1 (w/w))"
"CCCCCCCCCCCCCCCCOC(=O)CCC(NC(=O)C(N)CCCCN)C(=O)OCCCCCCCCCCCCCCCC (stereo not drawn) [Compound 2, Lys-Glu2C16]",,,,,,,,,,the gene expression level was low,
Lys-(CH2)3-Glu2C16 [Compound 6],,,,,,,,,,a high expression efficiency was obtained,The highest expression efficiency was obtained
